Measurements reported in publication PMC12299140, “Synthetic Analogs of the Alkaloid Cassiarin A with Enhanced Antimalarial Activity” (Pharmaceuticals, 2025).
Where two headings read alike, the source gives them in different places.

Legend:
[1] = system: chloroquine-sensitive Plasmodium falciparum strain 3D7; experiment: Malstat assay, chloroquine-sensitive strain 3D7; type: cell-based; conditions: for IC50 / IC90: Plasmodium falciparum; for IC50: read-out: P. falciparum 3D7 IC50; for IC90: read-out: P. falciparum 3D7 IC90
Description: (§1) The chloroquine-sensitive Plasmodium falciparum strain 3D7 and the chloroquine-resistant strain Dd2 were cultivated in vitro at 5% hematocrit in complete medium comprising RPMI 1640/HEPES medium supplemented with 0.5% w/w Albumax II, 10 µg/mL gentamicin, and 50 µg/mL hypoxanthine. Cultures were maintained at 37 °C in an atmosphere of 5% CO2, 5% O2, and 90% N2. To enrich parasites in the ring-stage, an asexual blood stage culture was synchronized. The culture was centrifuged at 1000× g for 3 min, and the supernatant was discarded. The cell pellet was resuspended in 5% sorbitol and incubated at room temperature for 10 min. Subsequently, the culture was centrifuged, and the pellet was washed with RPMI 1640/HEPES medium. After a final centrifugation step, the cell pellet was resuspended in fresh complete medium and returned to standard culture conditions for further cultivation. Human serum and erythrocyte concentrate were obtained from the Department of Transfusion Medicine, University Hospital Aachen, Germany. Donor sera and blood samples were pooled and kept anonymous. The work with human blood was approved by the Ethics Commission of the RWTH University Hospital (EK 007/13).
(§2) Synchronized ring-stage cultures of the P. falciparum strains 3D7 and Dd2 mixed with the compound were plated in triplicate into 96-well plates (200 µL/well) at a parasitemia of 1%. […] In addition, a dilution series with chloroquine with concentrations between 500 nM and 4 nM was used as a positive control and 0.5% v/v DMSO was used as a negative control. The cultures were then incubated under standard culture conditions for 72 h. Following incubation, 20 µL of the culture was transferred in triplicate to a new 96-well plate and mixed with 100 µL of Malstat reagent (0.1% v/v Triton X-100, 1 g L-lactate, 0.33 g Tris and 33 mg of 3-acetylpyridine adenine dinucleotide in 100 mL distilled water, pH 9.0) and 20 µL mixture of NBT and diaphorase (1:1 v/v; 1 mg/mL stock each). After colour development in the wells, absorbance was measured at OD630nm using a Tecan Plate Reader. The IC50 and IC90 values of the compounds were then determined using the GraphPad Prism software.

[2] = system: chloroquine-resistant P. falciparum strain Dd2; experiment: Malstat assay, chloroquine-resistant strain Dd2; type: cell-based, Plasmodium falciparum; conditions: for RI, resistance index = IC50 (Dd2)/IC50 (3D7): Dd2 vs 3D7; for IC50 / IC90: Plasmodium falciparum; for IC50: read-out: IC50 P. falciparum Dd2; for IC90: read-out: IC90 P. falciparum Dd2
Description: as §1, §2

[3] = system: Human umbilical vein endothelial cells (HUVECs); conditions: cited from earlier work
[4] = system: Human umbilical vein endothelial cells (HUVECs); experiment: Cytotoxicity assay (CellTiter-Blue cell viability assay); type: cell-based; conditions: HUVEC, 72 h
Description: Human umbilical vein endothelial cells (HUVECs) were purchased from Promocell (Heidelberg, Germany) and cultivated with ECGM Kit enhanced (PELO Biotech, Planegg, Germany) supplemented with 10% (FCS) (PAA Laboratories, Cölbe, Germany) and 1% penicillin/streptomycin/amphotericin B (all purchased from PAN Biotech). Cells were cultured at 37 °C with 5% CO2 with constant humidity. Cell proliferation was assessed using the CellTiter-Blue cell viability assay (Promega, Madison, WI, USA). Cells were treated as indicated for 72 h and 4 h before termination CellTiter-Blue reagent was added in a ratio of 1:10. Fluorescence intensity was determined by using the SpectraFluor Plus plate reader (Tecan, Männedorf, Switzerland) at 550 nm excitation and 595 nm emission wavelength. Fluorescence intensity is proportional to the cell number. Non-linear regression was carried out using the log(inhibitor) vs. response–variable slope (four parameters) function of GraphPad Prism (San Diego, CA, USA).
Figure 4 Cytotoxic effects of cassiarin A (5) and analogs 11b, 11c, and 11d on proliferation of HUVEC assessed by CellTiter-Blue^TM assay. IC50 values were determined using the log(inhibitor) vs. response—variable slope (four parameters) function of GraphPad Prism (10.4.0). Data are shown as mean ± SD.

[5] = chloroquine-sensitive strain 3D7, Malstat assay, 72 h
[6] = chloroquine-resistant strain Dd2, Malstat assay, 72 h

SMILES | IC50 [1, 5] | IC90 [1, 5] | RI, resistance index = IC50 (Dd2)/IC50 (3D7) [2] | IC50 [2, 6] | IC90 [2, 6] | IC50 [4] | further results
CCN(CC)CCCC(C)Nc1ccnc2cc(Cl)ccc12 (centres unmarked) [Compound 2, chloroquine, reference compound] |  |  | 5.3 |  |  |  | IC50 ([1]; 3D7, 72 h): 0.03 ± 0.01 µM; IC90 ([1]; 3D7, 72 h): 0.05 ± 0.01 µM; IC50 ([2]; DD2, 72 h): 0.16 ± 0.04 µM; IC90 ([2]; DD2, 72 h): 0.23 ± 0.13 µM; selectivity index (=IC50 (HUVEC)/IC50 (3D7)) [3]: 1987
CC1=Cc2nc(C)cc3cc(O)cc(c23)O1 [Compound 5, Cassiarin A] | 9.6 ± 0.63 µM | 16.4 ± 3.07 µM | 1.4 | 13.6 ± 3.95 µM | 20.5 ± 11.9 µM | 16.4 µM | 
CC1=Cc2nc(CN)cc3cc(O)cc(c23)O1 [Compound 11a, 5-(Aminomethyl)-2-methylpyrano[2,3,4-ij]isoquinolin-8-ol] | 31.9 ± 11.5 µM | 53.3 ± 10.5 µM |  |  |  |  | 
Cc1cc2cc(O)cc3c2c(n1)C=C(c1ccccc1)O3 [Compound 11c, 5-Methyl-2-phenylpyrano[2,3,4-ij]isoquinolin-8-ol] | 0.4 ± 0.04 µM | 0.5 ± 0.11 µM | 4.3 | 1.7 ± 0.74 µM | 2.1 ± 1.08 µM | 1.23 µM | 
NCc1cc2cc(O)cc3c2c(n1)C=C(c1ccccc1)O3 [Compound 11d, 5-(Aminomethyl)-2-phenylpyrano[2,3,4-ij]isoquinolin-8-ol] | 0.6 ± 0.11 µM | 1 ± 0.28 µM | 2.0 | 1.2 ± 0.32 µM | 1.8 ± 0.17 µM | 0.68 µM | 
Cc1cc2cc(O)cc3c2c(n1)C=C(c1ccc(O)cc1)O3 [Compound 11g, 2-(4-Hydroxyphenyl)-5-methylpyrano[2,3,4-ij]isoquinolin-8-ol] | 0.4 ± 0.03 µM | 0.9 ± 0.54 µM | 4.8 | 1.9 ± 1.01 µM | 5.9 ± 3.42 µM |  | 
COC(=O)c1ccc(C2=Cc3nc(C)cc4cc(O)cc(c34)O2)cc1 [Compound 18c, Methyl 4-(8-hydroxy-5-methylpyrano[2,3,4-ij]isoquinolin-2-yl)benzoate] | 0.2 ± 0.05 µM | 0.4 ± 0.14 µM | 2.0 | 0.4 ± 0.21 µM | 0.8 ± 0.58 µM |  | 

Further lines, with some results ahead:

IC50 [1, 5] | IC90 [1, 5] | SMILES | RI, resistance index = IC50 (Dd2)/IC50 (3D7) [2] | IC50 [2, 6] | IC90 [2, 6] | IC50 [4] | further results
2 ± 0.18 µM | 2.9 ± 0.53 µM | Oc1cc2c3c(nc(-c4ccccc4)cc3c1)C=C(c1ccccc1)O2 [Compound 11b, 2,5-Diphenylpyrano[2,3,4-ij]isoquinolin-8-ol] |  |  |  | 2.22 µM | 
2.1 ± 0.38 µM | 2.7 ± 0.22 µM | OCc1cc2cc(O)cc3c2c(n1)C=C(c1ccccc1)O3 [Compound 11e, 5-(Hydroxymethyl)-2-phenylpyrano[2,3,4-ij]isoquinolin-8-ol] |  |  |  |  | 
1.7 ± 0.2 µM | 3.4 ± 1.28 µM | OCCc1cc2cc(O)cc3c2c(n1)C=C(c1ccccc1)O3 [Compound 11f, 5-(2-Hydroxyethyl)-2-phenylpyrano[2,3,4-ij]isoquinolin-8-ol] |  |  |  |  | 
1.9 ± 0.19 µM | 2.5 ± 0.49 µM | CCCCC1=Cc2nc(C)cc3cc(O)cc(c23)O1 [Compound 18a, 2-Butyl-5-methylpyrano[2,3,4-ij]isoquinolin-8-ol] |  |  |  |  | 
2.2 ± 0.58 µM | 3.2 ± 0.68 µM | COc1cc2c3c(nc(C)cc3c1)C=C(c1ccc(OCCO)cc1)O2 [Compound 18b, 2-(4-(8-Methoxy-5-methylpyrano[2,3,4-ij]isoquinolin-2-yl)phenoxy)ethan-1-ol] |  |  |  |  | 
≥ 100 µM | ≥ 100 µM | C#CCOc1cc2c3c(nc(C)cc3c1)C=C(c1ccccc1)O2 [Compound 24, 5-Methyl-2-phenyl-8-(prop-2-in-1-yloxy)pyrano[2,3,4-ij]isoquinoline] |  |  |  |  | antiplasmodial activity (in words) ([1]; strain 3D7, Malstat assay): complete loss of antiplasmodial activity
